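Growth conditions: 96-well plates. Treatment: test compound, 48 hours, 5 concentrations. Analysis: linear interpolation between bracketing concentrations; unreached endpoints set to highest concentration. GI50 = concentration required for 50% inhibition of growth. TGI: concentration producing complete growth inhibition.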
How the values were obtained:
Assay in all cases: growth of human tumour cells (NCI), 48 h
[1] = system: 786-0 renal
[2] = system: A498 renal
[3] = system: A549 NSCLC
[4] = system: ACHN renal
[5] = system: BT-549 breast
[6] = system: CAKI-1 renal
[7] = system: CCRF-CEM leukemia
[8] = system: COLO 205 colon
[9] = system: DU-145 prostate
[10] = system: EKVX NSCLC
[11] = system: HCC-2998 colon
[12] = system: HCT-116 colon
[13] = system: HCT-15 colon
[14] = system: HOP-62 NSCLC
[15] = system: HOP-92 NSCLC
[16] = system: HS 578T breast
[17] = system: HT29 colon
[18] = system: IGROV1 ovarian
[19] = system: K-562 leukemia
[20] = system: KM12 colon
[21] = system: LOX IMVI melanoma
[22] = system: MALME-3M melanoma
[23] = system: MCF7 breast
[24] = system: MDA-MB-231 breast
[25] = system: MDA-MB-435
[26] = system: MOLT-4 leukemia
[27] = system: NCI-H226 lung
[28] = system: NCI-H23 lung
[29] = system: NCI-H460 lung
[30] = system: NCI-H522 lung
[31] = system: NCI/ADR-RES ovarian
[32] = system: OVCAR-3 ovarian
[33] = system: OVCAR-4 ovarian
[34] = system: OVCAR-5 ovarian
[35] = system: OVCAR-8 ovarian
[36] = system: PC-3 prostate
[37] = system: RPMI-8226 leukemia
[38] = system: RXF 393 renal
[39] = system: SF-268 CNS
[40] = system: SF-295 CNS
[41] = system: SF-539 CNS
[42] = system: SK-MEL-2 melanoma
[43] = system: SK-MEL-28 melanoma
[44] = system: SK-MEL-5 melanoma
[45] = system: SK-OV-3 ovarian
[46] = system: SN12C renal
[47] = system: SNB-19 CNS
[48] = system: SNB-75 CNS
[49] = system: SR leukemia
[50] = system: SW-620 colon
[51] = system: T-47D breast
[52] = system: TK-10 renal
[53] = system: U251 CNS
[54] = system: UACC-257 melanoma
[55] = system: UACC-62 melanoma
[56] = system: UO-31 renal
[57] = system: HL-60(TB) leukemia
[58] = system: M14 melanoma

Nc1ccccc1C#C/C=C\C#CC#C/C=C\C#Cc1ccccc1N
GI50 [1]: 9.76 µM
TGI [1]: 24.6 µM
GI50 [2]: 5.36 µM
TGI [2]: 20.6 µM
GI50 [3]: 2770 nM
TGI [3]: 16.4 µM
GI50 [4]: 5.38 µM
TGI [4]: 40.4 µM
GI50 [5]: 5.03 µM
TGI [5]: 25.9 µM
GI50 [6]: 2740 nM
TGI [6]: 11.8 µM
GI50 [7]: 89.2 nM
TGI [7]: 16 µM
GI50 [8]: 13.5 µM
TGI [8]: 35.9 µM
GI50 [9]: 2970 nM
TGI [9]: 13.5 µM
GI50 [10]: 7.84 µM
TGI [10]: 28.4 µM
GI50 [11]: 2250 nM
TGI [11]: 8.03 µM
GI50 [12]: 3.84 µM
TGI [12]: 15.9 µM
GI50 [13]: 3.74 µM
TGI [13]: 24.2 µM
GI50 [14]: 10.5 µM
TGI [14]: 28.1 µM
GI50 [15]: 1770 nM
TGI [15]: 8.35 µM
GI50 [16]: 12.4 µM
TGI [16]: 56.7 µM
GI50 [17]: 8.36 µM
TGI [17]: 32.7 µM
GI50 [18]: 2210 nM
TGI [18]: 17.9 µM
GI50 [19]: 781 nM
TGI [19]: > 100 µM
GI50 [20]: 3.64 µM
TGI [20]: > 100 µM
GI50 [21]: 1750 nM
TGI [21]: 11.6 µM
GI50 [22]: 11.7 µM
TGI [22]: 67.1 µM
GI50 [23]: 4.6 µM
TGI [23]: > 100 µM
GI50 [24]: 1540 nM
TGI [24]: 14.8 µM
GI50 [25]: 2850 nM
TGI [25]: 9.72 µM
GI50 [26]: 1010 nM
TGI [26]: 18.4 µM
GI50 [27]: 3.56 µM
TGI [27]: 27.2 µM
GI50 [28]: 5.17 µM
TGI [28]: 23.3 µM
GI50 [29]: 8.32 µM
TGI [29]: 25.6 µM
GI50 [30]: 3.93 µM
TGI [30]: 16 µM
GI50 [31]: 2850 nM
TGI [31]: 16.3 µM
GI50 [32]: 2780 nM
TGI [32]: 14 µM
GI50 [33]: 14.6 µM
TGI [33]: 92.8 µM
GI50 [34]: 14.9 µM
TGI [34]: 42.1 µM
GI50 [35]: 4.8 µM
TGI [35]: 29.5 µM
GI50 [36]: 2590 nM
TGI [36]: 16.5 µM
GI50 [37]: 515 nM
TGI [37]: 5.82 µM
GI50 [38]: 2180 nM
TGI [38]: 6.22 µM
GI50 [39]: 5.93 µM
TGI [39]: 26.2 µM
GI50 [40]: 5.23 µM
TGI [40]: 30.2 µM
GI50 [41]: 3.96 µM
TGI [41]: 16.6 µM
GI50 [42]: 14.2 µM
TGI [42]: 65.3 µM
GI50 [43]: 14.6 µM
TGI [43]: 36.7 µM
GI50 [44]: 8.43 µM
TGI [44]: 22.9 µM
GI50 [45]: 22.8 µM
TGI [45]: > 100 µM
GI50 [46]: 3.05 µM
TGI [46]: 16.4 µM
GI50 [47]: 16.2 µM
TGI [47]: 64.8 µM
GI50 [48]: 3.27 µM
TGI [48]: 22 µM
GI50 [49]: 1420 nM
TGI [49]: 7 µM
GI50 [50]: 7.54 µM
TGI [50]: 30.7 µM
GI50 [51]: 6.47 µM
TGI [51]: > 100 µM
GI50 [52]: 15.3 µM
TGI [52]: > 100 µM
GI50 [53]: 5.61 µM
TGI [53]: 22.2 µM
GI50 [54]: 8.96 µM
TGI [54]: 32.4 µM
GI50 [55]: 2180 nM
TGI [55]: 13.1 µM
GI50 [56]: 1940 nM
TGI [56]: 16.8 µM

CCOC(=O)Nc1sc2c(c1C#N)CC(C)CC2 (configuration not stated)
TGI [1]: 40.6 µM
TGI [3]: 40 µM
TGI [4]: 88.5 µM
TGI [5]: > 100 µM
TGI [6]: > 100 µM
TGI [8]: 18.2 µM
TGI [9]: > 100 µM
TGI [10]: > 100 µM
TGI [11]: 11.2 µM
TGI [12]: 25 µM
TGI [13]: > 100 µM
TGI [57]: 13.1 µM
TGI [14]: > 100 µM
TGI [15]: > 100 µM
TGI [16]: 65.9 µM
TGI [17]: 10.9 µM
TGI [18]: > 100 µM
TGI [19]: > 100 µM
TGI [20]: 36 µM
TGI [21]: 54.5 µM
TGI [58]: 17.4 µM
TGI [22]: 76.9 µM
TGI [23]: 24.5 µM
TGI [24]: 46.7 µM
TGI [25]: > 100 µM
TGI [26]: > 100 µM
TGI [27]: 35.3 µM
TGI [28]: > 100 µM
TGI [29]: 17.3 µM
TGI [30]: 16.9 µM
TGI [31]: 7.86 µM
TGI [32]: > 100 µM
TGI [33]: > 100 µM
TGI [34]: 99.1 µM
TGI [35]: > 100 µM
TGI [36]: 41.8 µM
TGI [37]: 34.8 µM
TGI [38]: 70.2 µM
TGI [39]: 96.6 µM
TGI [40]: > 100 µM
TGI [42]: 7.87 µM
TGI [43]: > 100 µM
TGI [44]: 16.6 µM
TGI [45]: > 100 µM
TGI [46]: 99 µM
TGI [47]: 27 µM
TGI [48]: 38.2 µM
TGI [49]: 18.4 µM
TGI [50]: > 100 µM
TGI [51]: > 100 µM
TGI [52]: 98 µM
TGI [53]: > 100 µM
TGI [54]: 42.8 µM
TGI [55]: 96.4 µM
TGI [56]: 46.1 µM
